Here are results for 2 compounds from patent US20230075368A1, “IDENTIFICATION OF AN EGFR-BIN3 PATHWAY THAT ACTIVELY SUPPRESSES INVASION AND REDUCES TUMOR SIZE IN GLIOBLASTOMA” (The United States Govemment as represented by the …, priority 2020, published 2023).

The subject of one experiment is HB-EGF. As to the kind of experiment: ELISA for HB-EGF in supernatants. The class given is cell-based, human. The note with it: tofacitinib 1 μM, 72 hours; GBM12 and GBM6. (In general: An ELISA detects its analyte on a solid surface through an enzyme-linked reagent.)
Another experiment deals with STAT1. Nature of the experiment: Western blot of pSTAT1 and STAT1. In kind it is cell-based, human. The note with it: tofacitinib 1 μM, 24 hours; GBM12 and GBM6. The method, then:
Mayo PDX cells were serum starved overnight. Following treatment for specific time, cells were harvested and lysed. The human glioblastoma tissues were ground in liquid nitrogen and then were lysed. […] TGFα antibody was from R&D system.
. . . […] A similar experiment was performed in GBM6 (FIG. 18F). […] The Western blot images are representative of three independent biological replicates. Actin served as loading control. Data are represented as mean±SEM from three independent experiments. *P<0.05, **P<0.01, ***P<0.001, unpaired two-tailed t-test.
(A western blot detects proteins with antibodies after separation by electrophoresis.)

The subject of another experiment is GBM12 cells. Nature of the experiment: Intravital microscopy of GBM cell motility through cranial window. The class given is in vivo, mice. The note with it: 10 ng EGF injected through cranial window 24 hours before imaging. The method, then:
Two-photon laser intravital microscope combined with cranial window surgery was used to observe cellular movement in vivo. Female athymic nude mice were anesthetized with 2.5% isoflourane and secured in a stereotactic frame. The head was shaved and the scalp was cut in a circular manner. The periosteum was scraped and a drill was used to create a circular cranial window over the front and parietal bone. 10 μL of 1×10^6 cells/ml GBM12 stably expressing H2B-GFP were implanted at a depth of 0.5 mm. Following implantation, a 5 mm silicone-based polydimethylsiloxane (PDMS) coverslip was glued to the bone surrounding the cranial window. PDMS (SYLGARD184, Sigma-Aldrich) film was prepared as described by Heo et al. (Heo, et al. (2016) A soft, transparent, freely accessible cranial window for chronic imaging and electrophysiology, Sci Rep 6: 27818). PDMS coverslip allows for easy insertion of Hamilton needle into the brain tissue for EGF delivery. Dental cement was applied on the skull surface, covering the edge of the coverslip. Seven days after surgery and 24 hours prior to imaging procedure, 10 ng EGF or vehicle was injected into the mice brain through cranial window. […]
Referring to FIG. 14A and FIG. 14B, EGF reduces cell migration speed in vivo detected by intravital microscopy. […] The cell velocity of around 200 cells per mouse were evaluated. […]

The subject of another experiment is EMP1. As to the kind of experiment: Western blot of EMP1. The note with it: EGF 50 ng/ml, 24 hours; GBM12 and GBM6. In kind it is cell-based, human. The method, then: Whole protein extracts from cells or tumor tissues were analyzed by western blot as previously described (Altieri et al. (2015) Surg. Technol. Int 27: 297-302). Mayo PDX cells were serum starved overnight. Following treatment for specific time, cells were harvested and lysed. The human glioblastoma tissues were ground in liquid nitrogen and then were lysed. EGFR (06-847) antibody was from Millipore. DOCK7 was from Proteintech (Rosemont, Ill.). pEGFR (2236), STAT3 (12640), pSTAT3 (9145), cdc42(4376), and RhoA (4695) antibodies were from Cell Signaling Technology (Danvers, Mass.). TGFα antibody was from R&D system. BIN3 (sc-514396) and (3-Actin (sc-47778) were from Santa Cruz Biotechnology (Dallas, Tex.).
Referring to FIG. 23A-P, EGFR induced EMP1 overexpression drives invasion and is mediated by Nanog. Specifically, cells were transiently transfected with empty or EGFRwt or EGFRvIII vector for 48 hours, and subjected to Western blot analysis for EGFR, pEGFR, BIN3 and EMP1 (FIG. 23A). Similar experiments were performed in GBM14 (FIG. 23B). […] Similar experiments were performed in GBM14 (FIG. 23E). Efficiency of EMP1 knockdown and EGFR overexpression was confirmed by Western blot analysis (FIG. 23F and FIG. 23G). […] FIG. 23J and FIG. 23K show EMP1 mRNA levels in EGFR and EGFRvIII overexpressing GBM12 and GBM14, measured by RT-PCR. […]

Experimental for HB-EGF: To determine EGFR ligands in medium, cells were serum starved for 48 hours, supernatants were collected and concentrated 5- to 10-fold with Pierce protein concentrator (ThermoFisher). HB-EGF, TGFα and EGF protein concentration in supernatant and tumor tissue extracts was determined by ELISA using the corresponding commercial HB-EGF, TGFα and EGF protein detection kits (ThermoFisher) per the manufacturer's instructions.

`C[C@@H]1CCN(C(=O)CC#N)C[C@@H]1N(C)c1ncnc2[nH]ccc12` [tofacitinib]: in the experiment on HB-EGF, the HB-EGF in supernatant result is reported as “upregulates”. The “phosphorylation of STAT1” value in the experiment on STAT1 is reported as “blocks phosphorylation”.
For “EGF: Recombinant human EGF (AF-100) from Peprotech; EGFR ligand”, in the experiment with GBM12 cells, the “movement of glioma cells in live mouse brain” value was “almost complete cessation of movement”. In addition, the EMP1 level result in the experiment with EMP1 is reported as “does not affect EMP1 level”.
